Measured values published in patent EP2116236A1, “Bisbenzamidine derivatives for use as antioxidant” (Université de Mons-Hainaut, priority 2008, dated 2009).

Experiments:
[1] = superoxide dismutase activity: inhibition of pyrogallol auto-oxidation; assay type: biochemical; settings: for Percent inhibition of the rate of pyrogallol auto-oxidation: compound 0.5 mM, pyrogallol 0.750 mM, TRIS saline buffer pH 7.4, first two minutes, average of three measures
Protocol: The pyrogallol auto-oxidation was measured at 420 nm according to the procedure Marklund & Marklund as reported in Vamecq et al. (2003). The incubation medium comprised TRIS saline buffer at pH 7.4 (5 mM TRIS, 50 mM NaCl) with either the vehicle (DMSO) or one of the compounds (final concentration 0.5 mM ) dissolved in DMSO. The reaction was triggered by the addition of pyrogallol (0.750 mM).
The results are given as percent inhibition of the rate of pyrogallol auto-oxidation measured during the first two minutes.

[2] = system: chemical seizure (scPtz); experiment: subcutaneous pentylenetetrazol (scPtz) induced chemical seizure test; assay type: in vivo; settings: Mus musculus, ip
Protocol: (§1) The tests were performed in rodents as described in J. Vamecq et al. Eur. J. Neurosc. 2003, 18, 1110. The results are shown in Table 1, wherein ScPtz refers to subcutaneous pentylenetetrazol, MES refers to Maximal Electroshock Seizures, MCS refers to Maximal Clonic Seizures, and ND means "not determined". The results are given as ED50 in mg/kg.

[3] = system: electrical seizure MCS (6 Hz); experiment: Maximal Clonic Seizures (MCS) 6 Hz electroshock test; assay type: in vivo
Protocol: as §1

[4] = system: audiogenic seizure; experiment: audiogenic seizure test in magnesium deficient animals; assay type: in vivo
Protocol: as §1

[5] = glutathione peroxidase activity: stimulation of peroxide-induced oxidation of reduced glutathione; assay type: biochemical; settings: for Effects of the compounds on the oxidation rate (%): average glutathione oxidation rate, vehicle control = 100 %, 2 mM reduced glutathione, 10 µl 50 mM compound in 1 mL, pH 7.4; for Glutathione peroxidase activity: 2 mM reduced Glutathione
Protocol: The activity of glutathione peroxidase compounds refers to the stimulation by the compounds of the peroxide-induced oxidation of reduced glutathione (H2O2, t-butyl-hydroperoxide or cumene hydroperoxide). […] The formation of oxidized glutathione results in the oxidation of NADPH in the presence of glutathione reductase. The NADPH oxidation is then measured and reflects the formation of oxidized glutathione. In view of the absorbance of the compounds, NADPH oxidation was measured by the fluorescent emission at 466 nm when excited at 366 nm, which a corrected quenching.
The glutathione oxidation was measured in the presence of NADPH and glutathione reductase in 1 ml cell by fluorimetry (λexcitation = 366 nm and λemission= 466 nm). The cell contained 1 mL of 10 mM phosphate buffer pH 7.4, 0.25 mM NADPH, 10 µl DMSO (or 10 µl 50 mM compound dissolved in DMSO), 2 mM reduced glutathione and two units of glutathione reductase (Saccharomyces cerevisiae). The reaction was triggered by the addition of peroxide (5 mM t-butyl-hydroperoxide). A stimulation of the rate of peroxide-induced oxidation of glutathione was considered as glutathione peroxidase activity.

[6] = system: electrical seizure MES (50 Hz); experiment: Maximal Electroshock Seizures (MES) test; assay type: in vivo; settings: Mus musculus, ip
Protocol: as §1

Compound | Percent inhibition of the rate of pyrogallol auto-oxidation [1] [%] | scavenging activity toward the superoxide anion ([1]; result in words) | ED50 [2] [mg/kg] | electrical seizure MCS (6 Hz) (mouse ip) ED50 [3] | ED50 ([3]; Mus musculus, ip) [mg/kg] | audiogenic seizure (mouse ip) ED50 [4] | ED50 ([4]; mouse ip) [mg/kg] | Effects of the compounds on the oxidation rate (%) ([5]; 5 mM t-butyl-hydroperoxide) | Glutathione peroxidase activity ([5]; 2.5 mM cumene hydroperoxide) [%] | Glutathione peroxidase activity ([5]; 2.5 mM hydrogen peroxide) [%] | Glutathione peroxidase activity ([5]; 5 mM hydrogen peroxide) [%] | Glutathione peroxidase activity ([5]; 5 mM t-butyl-hydroperoxide) [%] | ED50 [6] [mg/kg]
N=C(N)c1ccc(N)cc1 [4-aminobenzaminidine, 4-aminobenzamidine, reference compound] | < 5 | does not have any scavenging activity | – | – | – | – | – | – | – | – | – | – | –
N=C(N)c1ccc(NCCNc2ccc(C(=N)N)cc2)cc1 [Compound 2, 4,4'-(1,2-ethanediyldiimino)bisbenzenecarboximidamide] | 36.3 | – | > 300 | ED50 = 48.95 mg/kg | 60 to 100 | active | 6.9 | < 100 | – | – | – | – | –
CN(CCN(C)c1ccc(C(=N)N)cc1)c1ccc(C(=N)N)cc1 [Compound 3, 4,4'-[1,2-ethanediyl (N,N'-dimethyl bisnitrilo)]bis(benzenecarboximidamide)] | 51.0 | – | > 300 | – | – | little activity at non toxic doses | – | 197 | 128 | 117 | 108 | 197 | –
CN(CCNc1ccc(C(=N)N)cc1)c1ccc(C(=N)N)cc1 [Compound 4, 4,4'-(N-methyl 1,2-ethanediyldiimino)bis(benzenecarboximidamide)] | 17.5 | – | > 100 | – | – | little activity at non toxic doses | – | 107 | – | – | – | – | > 100
CCN(CCNc1ccc(C(=N)N)cc1)c1ccc(C(=N)N)cc1 [Compound 5, 4,4'-(N-ethyl-1,2-ethanediyldiimino)bis(benzenecarboximidamide)] | 28.8 | – | > 30 | – | – | little activity at non toxic doses | – | 105 | – | – | – | – | –
